The text below walks through data of US6670370B1 (priority 2001, dated 2003).

Series [1] can be described thus: Solubility in water (descriptive). Particulars: physical properties stated in detailed description.
For series [2] the following is noted: background statement on known substance, cited from earlier work.
Series [3] in a line: Tap density of milled dextromethorphan tannate powders. It is filed as physicochemical. Particulars: dried to moisture level (K.F.) of 5%, milled to particle size of about 100 mesh.

Structures can show the parent of a compound that is named as a salt. Where two headings read alike, the source gives them in different places.

On to `COc1ccc2c(c1)[C@]13CCCC[C@@H]1[C@H](C2)N(C)CC3` [dextromethorphan free base, 3-methoxy-17-methyl-9α, 13α, 14α-morphinan], for which the solubility in water entry in series [1] and in series [2] was “insoluble” throughout. Take `COc1ccc2c(c1)[C@]13CCCC[C@@H]1[C@H](C2)N(C)CC3` [hydrobromide monohydrate salt, dextromethorphan hydrobromide monohydrate]: the solubility in water result in series [2] (hydrobromide monohydrate) was “soluble”. `O=C(OC[C@H]1O[C@@H](OC(=O)c2cc(O)c(O)c(OC(=O)c3cc(O)c(O)c(O)c3)c2)[C@H](OC(=O)c2cc(O)c(O)c(OC(=O)c3cc(O)c(O)c(O)c3)c2)[C@@H](OC(=O)c2cc(O)c(O)c(OC(=O)c3cc(O)c(O)c(O)c3)c2)[C@@H]1OC(=O)c1cc(O)c(O)c(OC(=O)c2cc(O)c(O)c(O)c2)c1)c1cc(O)c(O)c(OC(=O)c2cc(O)c(O)c(O)c2)c1` [tannic acid]: in series [2], the solubility in water result is “highly soluble”. With “dextromethorphan tannate [Commercially available D-M Tannate]”, the “Tap Density” value in series [3] stood at 0.313 g/cc. For the compound “dextromethorphan tannate [D-M Tannate of the invention]”, the “Tap Density” value in series [3] was determined as 0.723 g/cc. For the compound “dextromethorphan tannate [D-M Tannate synthesized by IPA route (Example 5)]”, the “Tap Density” value in series [3] stood at 0.321 g/cc.
